Results published in patent US20050282755A1, “Compositions having antimicrobial activity and uses thereof” (priority 2004, published 2005).
Non-standard residues stand in square brackets, D forms with d. Residues, ends and D or L forms follow the SMILES beside them. dOrn = NCCC[C@@H](N)C(=O)O

What was measured:
[1] = system: P. acnes; experiment: Mouse skin assay, bactericidal activity on excised Balb/c skin; type: cell-based, Propionibacterium acnes; conditions: Incubation time 120 min; P. acnes untreated 0.9 × 10^8 cfu/ml
[2] = system: Staphylococcus aureus ATCC 29213; experiment: MIC, NCCLS M7-A6 broth microdilution, cation-adjusted Mueller Hinton broth (Table 9, no superscript); type: cell-based; conditions: ATCC 29213
Outline: (§1)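 Log-phase bacteria were added to wells containing peptide in cation-adjusted Mueller Hinton broth at a final 5×10^5 to 1×10^6 CFU/milliliter. Plates then sat overnight at 37° C. Wells were scored visually for turbidity against a peptide-free control.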

[3] = system: Salmonella dublin (Lane); experiment: MIC, NCCLS M7-A6 broth microdilution (Table 9, no superscript); type: cell-based
Outline: as §1

[4] = system: Propionibacterium acnes ATCC 6919; type: cell-based
Outline: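 MIC by non-standard broth microdilution in reinforced Clostridial broth, log-phase P. acnes inoculum at 5×10^5 to 1×10^6 CFU/mL. Plates were held anaerobically 48–72 h at 37° C; MIC was the lowest peptide concentration with no visible turbidity relative to the no-peptide control.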

[5] = system: Candida albicans ATCC 18804; experiment: MIC in yeasts, NCCLS M27-A2 broth microdilution, RPMI 1640 (Table 9, letter e); type: cell-based; conditions: ATCC 18804
Outline: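 Plates incubated 24 to 48 hours at 37° C, with yeast seeded at 0.5×10^3–2.5×10^3 CFU/milliliter final in RPMI 1640 (glutamine, phenol red indicator). MIC was read as the lowest peptide concentration showing no visible growth.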

[6] = system: Pseudomonas aeruginosa ATCC 27853; conditions: ATCC 27853, pH 7.4
[7] = system: Staphylococcus epidermidis ATCC 12228; conditions: ATCC 12228, pH 7.4

Row | Compound | P. acnes recovered from mouse skin [1] | MIC S. aureus [2] [µg/mL] | MIC S. dublin [3] [µg/mL] | MIC P. acnes [4] [µg·days/mL] | MIC C. albicans [5] [e ug/mL] | MIC P. aeruginosa [6] [b ug/mL] | MIC S. epidermidis [7] [b ug/mL]
1 | CSCC[C@@H](NC(=O)[C@@H](Cc1ccccc1)NC(=O)[C@@H](CC(N)=O)NC(=O)[C@@H](CCCNC(=N)N)NC(=O)[C@@H](CO)NC(=O)[C@@H](Cc1c[nH]c2ccccc12)NC(=O)[C@@H](CC(=O)O)NC(=O)[C@@H](CCCNC(=N)N)NC(=O)[C@@H](Cc1c[nH]c2ccccc12)NC(=O)[C@@H](CCCNC(=N)N)NC(=O)[C@@H](CO)NC(=O)[C@@H](CCCNC(=N)N)NC(=O)CNC(=O)[C@H](NC(=O)[C@@H](CCCNC(=N)N)NC(=O)[C@@H](CO)NC(=O)[C@H](NC(=O)[C@@H](CCCNC(=N)N)NC(=O)[C@H](NC(C)=O)[C@H](C)O)C(C)C)[C@H](C)O)C(=O)N[C@H](CCCNC(=N)N)C(=O)N[C@H](CCCN)C(=O)N[C@H](CCCN)C(=O)N[C@H](CCCN)C(=O)N[C@H](CCCN)C(=O)N[C@H](CCCN)C(=O)N[C@H](CCCN)C(=O)N[C@H](CCCN)C(=O)N[C@H](CCCN)C(N)=O [Peptide 35, Ac-trvsrtgrsrwrdwsrnfmroooooooo-NH2] (Ac-[dT][dR][dV][dS][dR][dT]G[dR][dS][dR][dW][dR][dD][dW][dS][dR][dN][dF][dM][dR][dOrn][dOrn][dOrn][dOrn][dOrn][dOrn][dOrn][dOrn]-NH2) | 4.5 × 10^4 cfu/ml | >64 | >64 | 6 |  |  | 
2 | CSCC[C@@H](NC(=O)[C@@H](Cc1ccccc1)NC(=O)[C@@H](CC(N)=O)NC(=O)[C@@H](CCCNC(=N)N)NC(=O)[C@@H](C)NC(=O)[C@H](NC(=O)[C@@H](CC(=O)O)NC(=O)[C@@H](CCCNC(=N)N)NC(=O)[C@@H](Cc1c[nH]c2ccccc12)NC(=O)[C@@H](CCCNC(=N)N)NC(=O)[C@@H](CO)NC(=O)[C@@H](CCCNC(=N)N)NC(C)=O)C(C)C)C(=O)N[C@H](CCCNC(=N)N)C(N)=O [Peptide 96, Ac-rsrwrdvarnfmr-NH2] (Ac-[dR][dS][dR][dW][dR][dD][dV][dA][dR][dN][dF][dM][dR]-NH2) |  | >64 | >64 | 12.5 | 8 | 50 | 12.5
